Measurements published in patent US20260200849A1, “CATIONIC LIPIDS AND PREPARATION METHOD THEREOF” (RiboX Therapeutics HK Limited, priority 2024, published 2026).

What was measured:
[1] = LNP size and polydispersity index (PDI) by dynamic light scattering (Zetasizer); type: physicochemical; details: for Size (nm): Formulation No. 001 (Ionizable lipid:DSPC:cholesterol:DMG-PEG2000 = 50:10:38.5:1.5, N/P 6), RNA No. 331; for PDI: Formulation No. 001, RNA No. 331
Procedure: (§1) The LNP size and polydispersity index (PDI), determined by dynamic light scattering (DLS), and zeta potential were measured by a Zetasizer machine (Malvern). RNA concentration and encapsulation efficacy (EE %) were analyzed by the Quant-IT Ribogreen kit by calculating the percentage encapsulation at 100%—(RNA-LNPs/RNA-LNPs with Triton X-100).

[2] = RNA encapsulation efficacy (EE %) by Quant-IT Ribogreen kit; type: physicochemical; details: LNP, Formulation No. 001, RNA No. 331
Procedure: as §1

Hep G2 cells [3] = assay: In vitro expression: luciferase activity in Hep G2 cells transfected with RNA-LNPs; type: cell-based; details: Formulation No. 001, RNA No. 331 (firefly-luciferase), 100 ng/mL RNA-LNPs, 72 hours post transfection
Procedure: 2E5 Hep G2 cells were transfected with 100 ng/mL of RNA-LNPs encoding for firefly-luciferase. At 72 hours post transfection, the cells were washed and lysed. The luciferase expression (2-well repeat) was determined in the cell lysates with the luciferase assay reagent kit (Promega), according to the kit protocol, luciferase activity was measured by a luminometer.

Hep G2 cells [4] = assay: In vitro toxicity: Hep G2 cell viability by CellTiter-Glo; type: cell-based; details: Formulation No. 001, RNA No. 331, 1 μg/mL RNA-LNPs, 72 hours post transfection, cell only = 100%
Procedure: 2E5 Hep G2 cells were transfected with 1 μg/mL RNA-LNPs. At 72 hours post transfection, cell viability (2-well repeat) was determined with the CellTiter-Glo® reagent kit, according to the kit protocol, measured by a luminometer. Cell only as control (100%).
The cell viability was calculated according to the following formula: […]

Balb/c mice = assay: In vivo expression by IV, 0.05 mg/kg luciferase RNA-LNPs, IVIS luminescence; details: Formulation No. 001, RNA No. 331; female Balb/c mice, 0.05 mg*kg−1 intravenous, 24-hours post injection
Procedure: (§2) 7-8 week old, female Balb/c mice (N=3) were injected with 0.05 mg*kg−1 of RNA-LNPs encoding for firefly-luciferase by intravenous injection. At 24- and 72-hours post injection, animals were intraperitoneally injected with 15 mg/mi of Luciferin substrate and whole-body luminescence was determined by a bioluminescent in vivo imaging system (IVIS).
as §2, with “24-hours” for “24- and 72-hours”, “mg/ml” for “mg/mi”, “whole-body/liver/spleen” for “whole-body”

MCP-1 = assay: In vivo tolerability by IV: serum MCP-1 by Luminex; design: species or system C57BL/6J mice; details: Formulation No. 001, RNA No. 331, male C57BL/6J mice, 1.0 mg*kg/1 intravenous; for MCP-1 at 2 h: 2 hours post injection; for MCP-1 at 24 h: 24 hours post injection
Procedure: (§3) 6-8 week old, male C57BL/6J mice (N=3) were injected with 1.0 mg*kg/1 of RNA-LNPs encoding for firefly-luciferase by intravenous injection. At 2- and 24-hours post injection, about 40 μL blood was harvested and immediately added to the procoagulant containing tube. Stand for 30 min at room temperature and then centrifuged at 2500 g×10 min to obtain serum. About 15 μL serum samples were aliquoted for cytokine (MCP-1 and IL-6) detection by Luminex (ProcartaPlex Mouse 2-plex, Thermo). PBS group as negative control.
as §3, with “mg*kg−1” for “mg*kg/1”

IL-6 = assay: In vivo tolerability by IV: serum IL-6 by Luminex; design: species or system C57BL/6J mice; details: Formulation No. 001, RNA No. 331, male C57BL/6J mice, 1.0 mg*kg/1 intravenous; for IL-6 at 2 h: 2 hours post injection; for IL-6 at 24 h: 24 hours post injection
Procedure: as §3
as §3, with “mg*kg−1” for “mg*kg/1”

C57BL/6J mice = assay: In vivo expression by IV, 1.0 mg/kg luciferase RNA-LNPs, whole-body and organ IVIS luminescence; details: Formulation No. 001, RNA No. 331; male C57BL/6J mice, 1.0 mg*kg−1 intravenous, 24-hours post injection
Procedure: (§4) 6-8 week old, male C57BL/6J mice (N=3) were injected with 1.0 mg*kg−1 of RNA-LNPs encoding for firefly-luciferase by intravenous injection. At 24-hours post injection, animals were intraperitoneally injected with 15 mg/ml of Luciferin substrate and whole-body/liver/spleen/kidney/small intestine/large intestine luminescence were determined by a bioluminescent in vivo imaging system (IVIS).
as §4, with “mg/nil” for “mg/ml”

## CCCCCCCCC(CCCCCC)C(=O)OCCCCCCCCOC(=O)NC(COC(=O)NCCN1CCCCCC1)C(=O)OCCCCCCCCOC(=O)C(CCCCCC)CCCCCCCC (stereo not drawn) [Lipid 889]
[1]
  Size (nm): 61.64 nm
  PDI: 0.02
[2]
  EE (%): 95.41%
Hep G2 cells [3]
  In vitro Expression (Mean): 2.46E+05
Hep G2 cells [4]
  In vitro cell viability (%) (Mean): 91.21%
Balb/c mice
  Liver (p/s) (Mean): 1.70E+08 p/s
  Spleen (p/s) (Mean): 8.56E+07 p/s
  Whole body (p/s) (Mean): 1.04E+09 p/s
MCP-1
  MCP-1 at 2 h: 760 pg/mL
  MCP-1 at 24 h: 286 pg/mL
IL-6
  IL-6 at 2 h: 7.62 pg/mL
  IL-6 at 24 h: 4.69 pg/mL
C57BL/6J mice
  Kidney (p/s): 3.47E+07 p/s
  Large intestine (p/s): 2.12E+08 p/s
  Liver (p/s): 5.79E+09 p/s
  Small intestine (p/s): 1.04E+09 p/s
  Spleen (p/s): 2.95E+08 p/s
  Whole body (p/s): 3.48E+09 p/s

## CCCCC/C=C\C/C=C\CCCCCCCCOC(=O)NC(COC(=O)NCCNC)C(=O)OCCCCCC(=O)OCC(CCCCCCCC)CCCCCCCCCC (stereo not drawn) [Lipid 907]
[1]
  Size (nm): 83.82 nm
  PDI: 0.02
[2]
  EE (%): 98.30%
Hep G2 cells [3]
  In vitro Expression (Mean): 2.56E+04
Hep G2 cells [4]
  In vitro cell viability (%) (Mean): 97.33%
Balb/c mice
  Liver (p/s) (Mean): 1.46E+08 p/s
  Spleen (p/s) (Mean): 3.43E+07 p/s
  Whole body (p/s) (Mean): 1.18E+09 p/s
MCP-1
  MCP-1 at 2 h: 1020 pg/mL
  MCP-1 at 24 h: 81.5 pg/mL
IL-6
  IL-6 at 2 h: 14 pg/mL
  IL-6 at 24 h: 2.35 pg/mL
C57BL/6J mice
  Kidney (p/s): 5.43E+06 p/s
  Large intestine (p/s): 3.94E+07 p/s
  Liver (p/s): 1.91E+08 p/s
  Small intestine (p/s): 3.03E+08 p/s
  Spleen (p/s): 5.98E+07 p/s
  Whole body (p/s): 8.99E+08 p/s

## CCCCCCCCCCCOC(=O)NC(COC(=O)NCCN1CCCCC1)C(=O)OCCCCCCCC(=O)OC(CCCCCCCC)CCCCCCCC (stereo not drawn) [Lipid 914]
[1]
  Size (nm): 70.33 nm
  PDI: 0.04
[2]
  EE (%): 87.49%
Hep G2 cells [3]
  In vitro Expression (Mean): 1.56E+06
Hep G2 cells [4]
  In vitro cell viability (%) (Mean): 79.98%
Balb/c mice
  Liver (p/s) (Mean): 3.77E+08 p/s
  Spleen (p/s) (Mean): 5.60E+07 p/s
  Whole body (p/s) (Mean): 1.19E+09 p/s
MCP-1
  MCP-1 at 2 h: 452 pg/mL
  MCP-1 at 24 h: 148 pg/mL
IL-6
  IL-6 at 2 h: 4.6 pg/mL
  IL-6 at 24 h: 2.77 pg/mL
C57BL/6J mice
  Kidney (p/s): 1.72E+07 p/s
  Large intestine (p/s): 4.60E+07 p/s
  Liver (p/s): 1.75E+09 p/s
  Small intestine (p/s): 4.42E+08 p/s
  Spleen (p/s): 2.11E+08 p/s
  Whole body (p/s): 2.46E+09 p/s

## CCCCC/C=C\C/C=C\CCCCCCCCOC(=O)C(COC(=O)NCCN1CCCCC1)NC(=O)OCCCCCCCCOC(=O)C(CCCCCC)CCCCCCCC (stereo not drawn) [Lipid 918]
[1]
  Size (nm): 69.23 nm
  PDI: 0.01
[2]
  EE (%): 93.47%
Hep G2 cells [3]
  In vitro Expression (Mean): 1.25E+06
Hep G2 cells [4]
  In vitro cell viability (%) (Mean): 85.92%
Balb/c mice
  Liver (p/s) (Mean): 4.14E+08 p/s
  Spleen (p/s) (Mean): 7.74E+07 p/s
  Whole body (p/s) (Mean): 1.21E+09 p/s
MCP-1
  MCP-1 at 2 h: 880 pg/mL
  MCP-1 at 24 h: 300 pg/mL
IL-6
  IL-6 at 2 h: 9.3 pg/mL
  IL-6 at 24 h: 4.73 pg/mL
C57BL/6J mice
  Kidney (p/s): 1.99E+07 p/s
  Large intestine (p/s): 8.43E+07 p/s
  Liver (p/s): 4.67E+09 p/s
  Small intestine (p/s): 6.30E+08 p/s
  Spleen (p/s): 3.95E+08 p/s
  Whole body (p/s): 5.08E+09 p/s

## CCCCC/C=C\C/C=C\CCCCCCCCOC(=O)C(COC(=O)NCCN1CCCCCC1)NC(=O)OCCCCCCCCOC(=O)C(CCCCCC)CCCCCCCC (stereo not drawn) [Lipid 919]
[1]
  Size (nm): 66.17 nm
  PDI: 0.02
[2]
  EE (%): 96.20%
Hep G2 cells [3]
  In vitro Expression (Mean): 4.10E+05
Hep G2 cells [4]
  In vitro cell viability (%) (Mean): 82.59%
Balb/c mice
  Liver (p/s) (Mean): 5.47E+08 p/s
  Spleen (p/s) (Mean): 2.28E+08 p/s
  Whole body (p/s) (Mean): 1.86E+09 p/s
MCP-1
  MCP-1 at 2 h: 1290 pg/mL
  MCP-1 at 24 h: 256 pg/mL
IL-6
  IL-6 at 2 h: 25.8 pg/mL
  IL-6 at 24 h: 5.07 pg/mL
C57BL/6J mice
  Kidney (p/s): 1.88E+07 p/s
  Large intestine (p/s): 1.29E+08 p/s
  Liver (p/s): 3.54E+09 p/s
  Small intestine (p/s): 6.16E+08 p/s
  Spleen (p/s): 6.74E+08 p/s
  Whole body (p/s): 6.01E+09 p/s

## CCCCCCCCCCCOC(=O)CCCCCOC(=O)C(COC(=O)NCCN1CCCCC1)NC(=O)OCCCCCCCCOC(=O)C(CCCCCC)CCCCCCCC (stereo not drawn) [Lipid 923]
[1]
  Size (nm): 81.29 nm
  PDI: 0.03
[2]
  EE (%): 88.91%
Hep G2 cells [3]
  In vitro Expression (Mean): 7.34E+05
Hep G2 cells [4]
  In vitro cell viability (%) (Mean): 88.59%
Balb/c mice
  Liver (p/s) (Mean): 4.09E+08 p/s
  Spleen (p/s) (Mean): 5.03E+07 p/s
  Whole body (p/s) (Mean): 1.57E+09 p/s
MCP-1
  MCP-1 at 2 h: 639 pg/mL
  MCP-1 at 24 h: 75 pg/mL
IL-6
  IL-6 at 2 h: 11.9 pg/mL
  IL-6 at 24 h: 2.37 pg/mL
C57BL/6J mice
  Kidney (p/s): 5.13E+06 p/s
  Large intestine (p/s): 5.94E+07 p/s
  Liver (p/s): 1.44E+09 p/s
  Small intestine (p/s): 3.01E+08 p/s
  Spleen (p/s): 3.85E+08 p/s
  Whole body (p/s): 2.42E+09 p/s

## CCCCCCCCC(CCCCCC)C(=O)OCCCCCCCCOC(=O)NC(COC(=O)NCCN1CCCCC1)C(=O)OCCCCCCCCCCC(=O)OCCCCCC (stereo not drawn) [Lipid 928]
[1]
  Size (nm): 75.43 nm
  PDI: 0.01
[2]
  EE (%): 87.36%
Hep G2 cells [3]
  In vitro Expression (Mean): 4.72E+05
Hep G2 cells [4]
  In vitro cell viability (%) (Mean): 95.03%
Balb/c mice
  Liver (p/s) (Mean): 2.35E+08 p/s
  Spleen (p/s) (Mean): 4.80E+07 p/s
  Whole body (p/s) (Mean): 9.65E+08 p/s
MCP-1
  MCP-1 at 2 h: 574 pg/mL
  MCP-1 at 24 h: 74.9 pg/mL
IL-6
  IL-6 at 2 h: 11.9 pg/mL
  IL-6 at 24 h: 30.5 pg/mL
C57BL/6J mice
  Kidney (p/s): 8.93E+06 p/s
  Large intestine (p/s): 2.23E+07 p/s
  Liver (p/s): 2.41E+09 p/s
  Small intestine (p/s): 1.61E+08 p/s
  Spleen (p/s): 3.25E+08 p/s
  Whole body (p/s): 2.17E+09 p/s

## CCCCCCCCC(CCCCCC)C(=O)OCCCCCCCCOC(=O)NC(COC(=O)NCCN1CCCCCC1)C(=O)OCCCCCCCCCCC(=O)OCCCCCC (stereo not drawn) [Lipid 929]
[1]
  Size (nm): 67.82 nm
  PDI: 0.01
[2]
  EE (%): 95.55%
Hep G2 cells [3]
  In vitro Expression (Mean): 2.24E+05
Hep G2 cells [4]
  In vitro cell viability (%) (Mean): 100.37%
Balb/c mice
  Liver (p/s) (Mean): 2.99E+08 p/s
  Spleen (p/s) (Mean): 5.00E+07 p/s
  Whole body (p/s) (Mean): 1.02E+09 p/s
MCP-1
  MCP-1 at 2 h: 783 pg/mL
  MCP-1 at 24 h: 58.6 pg/mL
IL-6
  IL-6 at 2 h: 14.7 pg/mL
  IL-6 at 24 h: 2.1 pg/mL
C57BL/6J mice
  Kidney (p/s): 2.14E+07 p/s
  Large intestine (p/s): 9.97E+07 p/s
  Liver (p/s): 3.67E+09 p/s
  Small intestine (p/s): 3.16E+08 p/s
  Spleen (p/s): 4.12E+08 p/s
  Whole body (p/s): 2.83E+09 p/s
